Measurements: patent US10111876B2, “ALK Kinase Inhibitor and its use” (Macau University of Science and Technology, priority 2016, dated 2018)

What was measured:
normal lung cells CCD19 = test: MTT cell viability assay, normal lung cells CCD19; assay type: cell-based; details: 72 h treatment
Experimental: (§1) H2228 and CCD19(Lu) cells were obtained from the American Type Culture Collection and cultured in an environment of 5% CO2 at 37° C. in RPMI-1640 mediums supplemented with 10% fetal bovine serum (FBS), 100 units/mL penicillin, and 100 μg/mL streptomycin.
(§2) Cell viability was determined by MTT assay. H2228 and CCD19 cells (3×10^3 cells/well) were seeded into a 96-well plate and treated with indicated concentrations of the compound of Formula (V) for 72 h. At the end of incubation, 10 μl MTT (0.5 mg/ml) (Sigma) was added to each well. After incubating for 4 h at 37° C., supernatants were removed and 150 μl of DMSO was added. The formazan crystals formed inside the viable cells were solubilized in DMSO and the OD was read with Microplate Reader (Epoch, Winooski, USA) at 570 nm. The IC50 value for the compound was determined by GraphPad Prim5.0 software. The experiments were performed three times with three replicates in each.

[1] = target: recombinant ALK kinase domain (Homo sapiens, UniProt Q9UM73); test: LanthaScreen Eu Kinase Binding Assay, recombinant ALK kinase domain; details: room temperature, 1 h
recombinant ALK kinase domain, sequence (Q9UM73 1116-1392 limits assumed): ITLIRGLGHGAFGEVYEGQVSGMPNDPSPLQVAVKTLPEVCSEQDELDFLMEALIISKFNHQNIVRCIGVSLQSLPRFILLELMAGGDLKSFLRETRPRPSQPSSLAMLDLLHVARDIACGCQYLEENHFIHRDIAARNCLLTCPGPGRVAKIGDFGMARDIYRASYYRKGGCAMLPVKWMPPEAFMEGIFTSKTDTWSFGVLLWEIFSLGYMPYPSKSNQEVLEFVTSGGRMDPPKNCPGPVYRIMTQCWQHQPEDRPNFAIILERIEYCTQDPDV
Experimental: Enzymatic assay for recombinant ALK kinase domain was conducted using the LanthaScreen® Eu Kinase Binding Assays. LanthaScreen® Eu Kinase Binding Assays are based on the binding and displacement of a proprietary. The assay was performed at room temperature for 1 h in a total volume of 15 μL, including 5 μL of test compound, 5 μL of kinase/antibody mixture and 5 μL of tracer. After 1 h incubation, fluorescence was measured. The division of acceptor/tracer emission (665 nm) by the antibody/donor emission (615 nm) was used to calculate the emission ratio.

H2228 cells = test: MTT cell viability assay, H2228 cells; assay type: cell-based; details: Homo sapiens, NCI-H2228, 72 h treatment
Experimental: as §1, §2

EC50 [1]: 0.0196 µM
IC50 (H2228 cells): 4.11 ± 0.96 µM
SMILES: Cc1sc2nc3c4ccccc4c(NCCCN(C)C)nn3c(=O)c2c1C [Formula (V)]
IC50 (normal lung cells CCD19): 16.8 ± 2.04 µM
